Assay results from US11879021B2, “Cyclic peptides and uses thereof” (UNIVERSITÉ DE MONTRÉAL, priority 2016, dated 2024).
“And” between values parts separate entries of the source, which are not always exact repeats. Identical values can stand only once. Numbered stars: 1 amine (or outer) side, 2 acyl side, 3 side chain; on linkers, the order of the positions; unused ones are H or OH. Square brackets hold non-standard residues; d marks the D form. Peptide text beside a SMILES is read from it. azaTyr = O=C(N(Cc1ccc(O)cc1)N[*:1])[*:2]

Experiments:
CD36 = molecular target: T1, CD36 (Rattus norvegicus, UniProt Q07969); assay: Competition binding of photoactivatable [125I]-Tyr-Bpa-Ala-Hexarelin to CD36 in rat cardiac membranes; conditions: competition with [125I]-Tyr-Bpa-Ala-Hexarelin, rat heart membranes; for IC50: read-out: IC50 (μM), binding affinity for CD36
T1 construct: from tissue; host or cells: Heart (cardiac membranes) of Sprague Dawley rats from Charles River
T1 sequence (Q07969 whole entry): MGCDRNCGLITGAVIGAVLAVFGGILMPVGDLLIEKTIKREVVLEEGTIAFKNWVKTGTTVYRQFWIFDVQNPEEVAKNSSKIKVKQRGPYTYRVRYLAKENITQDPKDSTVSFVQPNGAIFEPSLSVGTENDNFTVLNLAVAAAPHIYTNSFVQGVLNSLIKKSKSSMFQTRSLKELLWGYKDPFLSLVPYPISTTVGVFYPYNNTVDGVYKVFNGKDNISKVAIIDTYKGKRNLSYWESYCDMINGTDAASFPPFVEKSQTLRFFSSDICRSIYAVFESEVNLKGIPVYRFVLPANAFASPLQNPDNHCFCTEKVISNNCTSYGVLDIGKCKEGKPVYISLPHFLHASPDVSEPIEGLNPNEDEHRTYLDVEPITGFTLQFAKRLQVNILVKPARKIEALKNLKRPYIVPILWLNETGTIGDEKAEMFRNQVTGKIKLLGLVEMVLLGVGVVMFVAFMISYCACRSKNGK
Protocol: Hearts from Sprague Dawley rats (300-325 g) from Charles River were cut into small pieces and homogenized with a Polytron® at low speed, 3×15 sec in buffer A (10 mM NaHCO3, 5 mM NaN3, 10 μM Pefabloc®, 0.1 μM Aprotinin, 1 μM Pepstatin A, 1 μM Leupeptin, pH 7.0) at a concentration of […] of tissue. The homogenate was first centrifuged at 8,700×g for 20 min in a Sorvall® centrifuge and the supernatant was collected on ice. The pellet was resuspended and re-homogenized with a Glass-Teflon® Potter by 5 strokes. This homogenate was recentrifuged at 8,700×g for 10 min and the resulting supernatant was combined with the first collected supernatant. The combined supernatant was centrifuged at 35,000×g for 20 min. The pellet fraction obtained was resuspended in Buffer B (20 mM Tris-maleate, 0.6M KCl, pH 6.8) in a volume corresponding to 20 mL/g of fresh tissue using a glass homogenizer with a Teflon pestle. The resulting suspension was centrifuged again at 35,000×g for 60 min. and the pellet fraction obtained was resuspended in Buffer C (10 mM Tris/HCl buffer pH 7.4) and thoroughly homogenized in a glass with a Teflon® pestle (20 ml/g of fresh tissue). This suspension was submitted to another centrifugation at 35,000×g for 60 min. The collected pellet was resuspended in 50 mM Tris/HCl buffer pH 7.4) containing 2 mM EGTA in a final volume corresponding to 1-2 mL/g of fresh tissue. The membrane preparation obtained was frozen at −80° C. Protein concentration was determined using the bicinchoninic acid (BCA) method, employing BSA as standard.
The reaction was started by adding 3 nmol of H2O2 for 5 min at room temperature. This step was repeated twice with a period of 5 min of incubation for each addition. The reaction was stopped by diluting the mixture with 1 mL of 0.1% TFA. The radioiodinated peptide was purified by HPLC on a reverse-phase Vydac® C18 column with a 60-min linear gradient from 20% to 50% of acetonitrile in 0.1% TFA. The eluted radiolabelled tracer was collected, aliquoted (50×10^6 cpm/fraction) and stored at −80° C.
Binding studies with MPE-298 were done with increasing concentrations from 0.01 to 5 μM of competition ligands. Nonspecific binding was defined as binding not displaced by 50 μM corresponding peptide. All peptide containing solutions were diluted in Buffer B. Buffer A and B were degassed under vacuum, and used in capped tubes in order to minimize lipid peroxidation. Before the incubation period, all tubes were put under a low flow of nitrogen. All material was kept on ice and the binding assay was performed in darkness. After an incubation period of 60 min at 22° C. (vortexing every 15 min), membranes were submitted to irradiation with UV lamps (365 nm) for 15 min at 4° C. After centrifugation at 12,000×g for 15 minutes, the pellets were resuspended in 40 μl of sample buffer (62 mM Tris-HCl, pH 6.8, 2% SDS, 10% glycerol, 15% 2-mercaptoethanol, and 0.05% bromophenol blue), and boiled for 5 min prior to being subjected to electrophoresis. Proteins (50 μg/40 μl) were separated on a 7.5% SDS-PAGE Bio-Rad® Mini-Protean electrophoresis system (150 V for 1 h). The gels resulting from SDS/PAGE were fixed, colored in Coomassie Brilliant Blue R-250, dried, exposed to a storage phosphor intensifying screen (Amersham Biosciences), and analysed using a Typhoon® PhosphorImager (GE Healthcare Life Sciences®). […] The curves were analysed by using software package (Graphpad® prism version 7.0).

[1] = tested on: R-FSL-1 (TLR2 agonist)-induced NO production in RAW macrophage cell line; assay: Nitric oxide (NO) production induced by TLR2 agonist R-FSL-1 in RAW macrophage cell line; assay type: cell-based, murine; conditions: RAW macrophages; for suppression of R-FSL-1-mediated NO production: at the concentration tested (10^−6 or 10^−7 M), FIGS. 4A to 4F
Protocol: The murine RAW1 macrophage cell line was obtained from American Type Cell Collection (ATCC #TIB-71), seeded at 1.5×10^5 cells/well in Dulbecco's Modified Eagle's medium (DMEM) containing 100 U/mL of penicillin (Pen) and 100 μg/mL of streptomycin (Strep) on a 48-well plate (Costar® #3548), and incubated at 37° C. with 5% CO2. After 2 h, the cell culture medium of adhered cells was removed and replaced by DMEM-Pen/Strep medium containing 0.2% of bovine serum albumin (BSA), and supplemented with the cyclic peptides at a concentration of 10^−6 or 10^−7 M. MPE-001 (DBG178, His-D-Trp-Ala-AzaTyr-D-Phe-Lys-NH2) and [azaLys^6]-GHRP-6 (His-D-Trp-Ala-Trp-D-Phe-azaLys-NH2, negative control) at 10^−6 M were used as positive and negative controls, respectively. After 1 h pre-incubation, the cells were stimulated overnight using the TLR2 ligand fibroblast-stimulating lipopeptide (R-FSL-1) (Invivogen® #L7022) at a concentration of 300 ng/mL. Supernatants were then collected for nitrite production analysis by fluorescence using 2,3-diaminonaphthalene (DAN). Briefly, 25 μL of sample was incubated with 0.5 μg of DAN in a 100 μL final volume of phosphate buffer (50 mM, pH 7.5) at room temperature in the dark. After 15 min, the reaction was stopped with 20 μL of NaOH (2.8N) and the plate was read using a fluorescence plate reader (TECAN® Safire, λexc 365 nm and λem 430 nm).

[2] = tested on: R-FSL-1 (TLR2 agonist)-induced TNF-α and CCL-2 release in RAW macrophages; assay: R-FSL-1-induced TNF-α and CCL-2 release in RAW macrophages; assay type: cell-based, murine; conditions: 10^−7 M
Protocol: The murine RAW1 macrophage cell line was obtained from American Type Cell Collection (ATCC #TIB-71). RAW cells were seeded at 150,000 cells per well in a 48-well plate (Costar® #3548) and weaned overnight in medium (DMEM supplemented 1% penicillin/streptomycin) at 37° C. with 5% CO2. The next day, the medium was changed to DMEM-1% penicillin/streptomycin supplemented with 0.2% BSA. The cells were first pretreated with 300 μL of azapeptides DBG178 (MPE-133, reference standard), 25 (MPE-210), 26 (MPE-266), 28 (MPE-268), 32 (MPE-267), 33 (MPE-298), 38 (MPE-308), 35 (MPE-300), 39 (MPE-310) and azaLys6-GHRP-6 (as negative control) at 10^-7M for 30 min. Then, […] of the TLR2 agonist, R-FSL-1 (300 ng/ml final concentration, R-FSL-1, Invivogen® #L7022) was added for 4 h period of incubation at 37° C. with 5% CO2. At the end of the incubation period, media were collected and stored at −80° C. for TNF-α and CCL-2 assays using ELISA kits (EbioScience® #88-7391 and #88-7324). Results were analyzed by analysis of variance (ANOVA) with post hoc comparisons using Dunnett's test with a statistical software package (Graph Pad Prism® version 7.0). P<0.05 was considered statistically significant.

Structure (SMILES) | IC50 (CD36) | binding to CD36 (in words) (CD36) | suppression of R-FSL-1-mediated NO production [1] | other results
C=CCN1CC#CCN(NC(=O)C(C)N)C(=O)N[C@H](Cc2c[nH]c3ccccc23)C(=O)N[C@@H](C)C(=O)N[C@@H](Cc2c[nH]c3ccccc23)C(=O)N[C@H](Cc2ccccc2)C(=O)N[C@H](C(N)=O)CCCC1 (stereo in doubt) [MPE-202] | 14.3 µM | – | – | –
C=CCN1CC#CCN(NC(=O)C(N)C(C)C)C(=O)N[C@H](Cc2c[nH]c3ccccc23)C(=O)N[C@@H](C)C(=O)N[C@@H](Cc2c[nH]c3ccccc23)C(=O)N[C@H](Cc2ccccc2)C(=O)N[C@H](C(N)=O)CCCC1 (stereo in doubt) [MPE-203] | 2.26 µM | – | – | –
C[C@H](NC(=O)[C@@H](Cc1c[nH]c2ccccc12)NC(=O)[C@@H](N)Cc1c[nH]cn1)C(=O)NN(Cc1ccc(O)cc1)C(=O)N[C@H](Cc1ccccc1)C(=O)N[C@@H](CCCCN)C(N)=O [MPE-001, His-D-Trp-Ala-AzaTyr-D-Phe-Lys-NH2, reference compound] (H-H[dW]A[azaTyr][dF]K-NH2) | ~2 µM | – | – | –
C=CCN1CC#CCC(NC(=O)[C@H](C)N)C(=O)N[C@H](Cc2c[nH]c3ccccc23)C(=O)N[C@@H](C)C(=O)N[C@@H](Cc2c[nH]c3ccccc23)C(=O)N[C@H](Cc2ccccc2)C(=O)N[C@H](C(N)=O)CCC1 (some centres unmarked) [MPE-048] | 13.7 µM | detectable binding | – | –
C=CCN1CC#CC[C@@H](NC(=O)[C@H](C)N)C(=O)N[C@H](Cc2c[nH]c3ccccc23)C(=O)N[C@@H](C)C(=O)N[C@@H](Cc2c[nH]c3ccccc23)C(=O)N[C@H](Cc2ccccc2)C(=O)N[C@H](C(N)=O)CCCC1 [MPE-074] | 1.04 µM | detectable binding | – | –
C=CCN1CC#CC[C@H](NC(=O)[C@H](C)N)C(=O)N[C@H](Cc2c[nH]c3ccccc23)C(=O)N[C@@H](C)C(=O)N[C@@H](Cc2c[nH]c3ccccc23)C(=O)N[C@H](Cc2ccccc2)C(=O)N[C@H](C(N)=O)CCCC1 [MPE-075] | 0.66 µM | detectable binding | significant suppression | –
C=CCN1CC#CC[C@@H](NC(=O)[C@H](C)N)C(=O)N[C@@H](C)C(=O)N[C@@H](Cc2c[nH]c3ccccc23)C(=O)N[C@H](Cc2ccccc2)C(=O)N[C@H](C(N)=O)CCCC1 [MPE-110] | 3.32 µM | detectable binding | – | –
C=CCN1CC#CC[C@H](NC(=O)[C@H](C)N)C(=O)N[C@@H](C)C(=O)N[C@@H](Cc2c[nH]c3ccccc23)C(=O)N[C@H](Cc2ccccc2)C(=O)N[C@H](C(N)=O)CCCC1 [MPE-111] | 0.24 µM | detectable binding | significant suppression | –
C=CCN1CC#CCN(NC(=O)[C@@H](C)N)C(=O)N[C@H](Cc2c[nH]c3ccccc23)C(=O)N[C@@H](C)C(=O)NN(Cc2ccc(OC)cc2)C(=O)N[C@H](Cc2ccccc2)C(=O)N[C@H](C(N)=O)CCCC1 [MPE-189] | 3.26 µM | detectable binding | significant suppression | –
CN1CC#CCN(NC(=O)[C@@H](Cc2c[nH]c3ccccc23)NC(=O)[C@@H](N)Cc2cnc[nH]2)C(=O)N[C@@H](Cc2c[nH]c3ccccc23)C(=O)N[C@H](Cc2ccccc2)C(=O)N[C@H](C(N)=O)CCCC1 [MPE-210] | 2.06 µM | – | – | effect on R-FSL-1-induced CCL-2 release [2]: no significant effect; effect on R-FSL-1-induced TNF-α release [2]: no significant effect
C=CCN1CC#CCN(NC(=O)[C@@H](Cc2c[nH]c3ccccc23)NC(=O)[C@@H](N)Cc2cnc[nH]2)C(=O)N[C@@H](Cc2c[nH]c3ccccc23)C(=O)N[C@H](Cc2ccccc2)C(=O)N[C@H](C(N)=O)CCCC1 [MPE-266] | 0.68 µM | – | significant suppression | effect on R-FSL-1-induced CCL-2 release [2]: significant inhibitory effect; effect on R-FSL-1-induced TNF-α release [2]: significant inhibitory effect
C=CCN1CC#CCN(N)C(=O)N[C@H](Cc2c[nH]c3ccccc23)C(=O)N[C@@H](C)C(=O)N[C@@H](Cc2c[nH]c3ccccc23)C(=O)N[C@H](Cc2ccccc2)C(=O)N[C@H](C(N)=O)CCCC1 [MPE-268] | – | no significant binding affinity | – | suppression of NO production compared with positive control MPE-001 at the same concentration ([1]; 10^−7 M, FIG. 4F): more important; suppression of R-FSL-1-mediated NO production at 10^−7 M ([1]; 10^−7 M, further analyses, FIG. 4F): significant suppression; R-FSL-1-mediated NO production, % of control ([1]; control = R-FSL-1 only, noticeable reduction without reaching significance (P<0.01)): about 80 % of control; effect on R-FSL-1-induced CCL-2 release [2]: no significant effect; effect on R-FSL-1-induced TNF-α release [2]: no significant effect
C=CCN1CC#CCN(NC(=O)[C@H](C)N)C(=O)N[C@H](Cc2c[nH]c3ccccc23)C(=O)N[C@@H](C)C(=O)N[C@H](C(=O)N[C@H](Cc2ccccc2)C(=O)N[C@@H](CCCCN)C(N)=O)CCCC1 [MPE-300] | 10 µM and 10.6 µM | – | significant suppression | –
C=CCN1CC#CCN(NC(=O)[C@H](C)N)S(=O)(=O)N[C@H](Cc2c[nH]c3ccccc23)C(=O)N[C@@H](C)C(=O)N[C@@H](Cc2c[nH]c3ccccc23)C(=O)N[C@H](Cc2ccccc2)C(=O)N[C@H](C(N)=O)CCCC1 [MPE-400] | 11.6 µM | detectable binding | – | –
